Test results: PMC9661718, “Identification of Inhibitors of the Schistosoma mansoni VKR2 Kinase Domain” (ACS Medicinal Chemistry Letters, 2022)
“Also recorded” adds a separate entry of the source.

Legend:
adult S. mansoni worms = assay: Ex vivo adult S. mansoni phenotypic screen (descriptors and severity scores); design: species or system Schistosoma mansoni; key to Descriptors 2 h / Descriptors 5 h / Descriptors 24 h: degenerating (deg); uncoordinated (unc); slow (S); on sides, inability of worms to adhere to well floor with either the oral or ventral sucker; teg bleb, damage to the surface tegument; settings: 10 μM compound; for Descriptors 2 h / Descriptors 5 h / Descriptors 24 h: ex vivo adult worms
Experimental: The 12 compounds identified from the SPR screen were tested against ex vivo adult S. mansoni worms to investigate whether they induce phenotypic alterations in the parasite. Compound effects at 10 μM were assessed at 2, 5, and 24 h, and activity was partially quantified using an observation-based severity scoring system that is designed to holistically assess the many different responses to chemical insult of which the schistosome is capable.[26],[27] For those compounds eliciting phenotypic changes, WormAssay was also employed as an additional readout to measure average worm motility per well.[28],[29] Four compounds, GW696155, GSK986310, GSK1520489, and SB-710363, produced a variety of effects in the worm (Figure 1; Table 2; Table S1). GW696155 generated the strongest responses. […] Although, SPR identified 12 compounds against the SmVKR2KD (Table 1), the absence of phenotypic activity for eight of these compounds (Table S2) could be due to their poor uptake by the parasite. It is also possible that the phenotypic changes noted for the four active compounds are only partially related or unrelated to engagement of the SmVKR2 target. […]
Preparation of S. mansoni
The acquisition, preparation and in vitro maintenance of S. mansoni have been described 11, 12.
We use a Naval Medical Research Institute (NMRI) isolate of S. mansoni that is cycled between Biomphalaria glabrata snails and male Golden Syrian hamsters (infected at 4-6 weeks of age) as intermediate and definitive hosts, respectively. Briefly, adult worms were harvested from hamsters 42 days post-infection in RPMI or DMEM, and washed five times prior to maintenance overnight at 37 °C and 5% CO2 in Basch medium 13 containing 4% heat-inactivated FBS, 100 μg/ml streptomycin and 100 U/ml penicillin. activity against adult Ex vivoS. mansoni
Ex vivo screens with adults employed 24-well flat-bottomed plates and approximately five males, two to three of which were paired to females. Screens incorporated a final compound concentration of 10 μM in DMSO (0.5% final concentration). The complex and often dynamic phenotypic responses that the schistosome parasite is capable of were observed using a Zeiss Axiovert A1 inverted microscope at 2, 5 and 24 h. Observations were classified using a constrained nomenclature that involves simple “descriptors” to convey changes in shape, motility and appearance, and the inability of the male worm to adhere to the bottom of the well, compared to DMSO controls 11, 14, 15. Each descriptor was given a value of 1 and these were added up to yield a “severity score” with a maximum of 4. Evidence of degeneracy or death was awarded a value of 4 as was damage to the tegument (surface), on the understanding this would compromise survival in vivo. Scores were averaged across 3-5 individual experiments.

adult S. mansoni = assay: WormAssay average worm motility per well; design: species or system Schistosoma mansoni; settings: 10 μM compound, 2, 5 and 24 h
Experimental: The 12 compounds identified from the SPR screen were tested against ex vivo adult S. mansoni worms to investigate whether they induce phenotypic alterations in the parasite. Compound effects at 10 μM were assessed at 2, 5, and 24 h, and activity was partially quantified using an observation-based severity scoring system that is designed to holistically assess the many different responses to chemical insult of which the schistosome is capable.[26],[27] For those compounds eliciting phenotypic changes, WormAssay was also employed as an additional readout to measure average worm motility per well.[28],[29] Four compounds, GW696155, GSK986310, GSK1520489, and SB-710363, produced a variety of effects in the worm (Figure 1; Table 2; Table S1). GW696155 generated the strongest responses. […] Although, SPR identified 12 compounds against the SmVKR2KD (Table 1), the absence of phenotypic activity for eight of these compounds (Table S2) could be due to their poor uptake by the parasite. It is also possible that the phenotypic changes noted for the four active compounds are only partially related or unrelated to engagement of the SmVKR2 target.
Figure 1 Changes in the average motility of adult S. mansoni as a function of time, as measured by WormAssay. Significance was determined by Student’s t-test (two-tailed): *P < 0.05, **p < 0.005, ***P < 0.0005. Data were derived from three to five biological assays with 10 μM compound. […]
The assay was performed according to the manufacturer’s recommendations without any modifications. The optimal concentration of the SmVKR2KD in the assay was established as µM. The autophosphorylation activity was measured at an ATP concentration of […] to aid the identification of competitive inhibitors as recommended by the ADP-Glo Kinase Assay (Promega) protocol. The autophosphorylation activity of the SmVKR2KD was measured in the presence and absence of inhibitors at various concentrations. […] The luminescence was measured using a CLARIOstar plate reader. […]

schistosomes = test system: schistosomes; design: method as in PMID 23696913; settings: cited from earlier work
SmVKR1 = test system: SmVKR1; design: method as in PMID 23696913; settings: cited from earlier work
SmVKR2 = test system: SmVKR2; design: method as in PMID 23696913; settings: cited from earlier work

| SMILES | Descriptors 2 h (adult S. mansoni worms) | Severity scores 2 h (adult S. mansoni worms; maximum score 4) | Descriptors 5 h (adult S. mansoni worms) | Severity scores 5 h (adult S. mansoni worms; maximum score 4) | Descriptors 24 h (adult S. mansoni worms) | Severity scores 24 h (adult S. mansoni worms; maximum score 4) | average worm motility (WormAssay) (adult S. mansoni) | severity score (adult S. mansoni worms; time not given, maximum score 4) | phenotypic activity assessed visually (adult S. mansoni worms; time not stated) | apoptosis and egg production in schistosomes (schistosomes) | inhibition of SmVKR1 (SmVKR1) | inhibition of SmVKR2 (SmVKR2) |
| --- | --- | --- | --- | --- | --- | --- | --- | --- | --- | --- | --- | --- |
| Nc1n[nH]c2cnc(-c3ccccc3)cc12 [SB-642124] | none | 0 | none | 0 | none | 0 | – | – | – | – | – | – |
| CS(=O)(=O)Nc1ccc(-c2ccnc3[nH]ccc23)cc1 [GSK993273] | none | 0 | none | 0 | none | 0 | – | – | – | – | – | – |
| NCCNS(=O)(=O)c1ccc(-c2ccnc3[nH]ccc23)cc1 [GSK977617] | none | 0 | none | 0 | none | 0 | – | – | – | – | – | – |
| Cc1cccc(Nc2nc(N[C@H]3CCCC[C@H]3N)ncc2C(N)=O)c1 [GSK986310] | S | 1 | S | 1 | S | 1 | milder effect in decreasing worm movement | 1 | – | – | – | – |
| Nc1nc(N)c2[nH]c(-c3ccccc3)nc2n1 [SKF-12778] | none | 0 | none | 0 | none | 0 | – | – | – | – | – | – |
| NC(=O)Nc1sc(-c2ccc(F)cc2)cc1C(N)=O [GW789449] | none | 0 | none | 0 | none | 0 | – | – | – | – | – | – |
| CNC(=O)c1ccccc1Nc1nc(Nc2cccc(CS(C)(=O)=O)c2)ncc1C [GSK1520489] | unc | 1 | unc | 1 | unc | 1 | without a long-term decrease in average motility | – | mild uncoordinated motility | – | – | – |
| Cc1cccc(Nc2nc(NCCN)ncc2C(N)=O)c1 [GSK1292139] | none | 0 | none | 0 | none | 0 | – | – | – | – | – | – |
| CC(C)(C)c1cc(C=C(C#N)C#N)cc(Br)c1O [tyrphostin AG1024] | – | – | – | – | – | – | – | – | – | concentration-dependent apoptosis and cessation of egg production | inhibited | inhibited |
| CN(C)CCNS(=O)(=O)c1ccc(-c2ccnc3[nH]ccc23)cc1 [GSK977620] | none | 0 | none | 0 | none | 0 | – | – | – | – | – | – |
| CC(C)Oc1ccc2c(-c3ccnc(Nc4ccc(N5CCN(C)CC5)cc4)n3)cnn2n1 [GW696155] | decreased motility and lost their ability to adhere to the floor of the well; also recorded: S, on sides | 2 | Dark, S, on sides | 3 | worm degeneration and damage to the surface tegument in the form of blebs or bubbles; also recorded: Deg, S, on sides, teg bleb | 4 | decrease in average worm motility over time | – | – | – | – | – |
| Cc1n[nH]c2cc(Nc3ccnc(Nc4cccc(CN5CCOCC5)c4)n3)ccc12 [GW682569] | none | 0 | none | 0 | none | 0 | – | – | – | – | – | – |
